Data taken from patent publication US4452986A, “Imidazolyl-substituted benzofurans” (The Upjohn Company, priority 1982, dated 1984).
Counter-ions that a name gives are not always drawn.

Target: T1, TXA2 synthetase (human platelet microsomes) (Homo sapiens, UniProt P24557)
T1 construct: human platelet microsomes (HPM); from tissue; host or cells: human platelets (microsomes)
T1 sequence (P24557 1-533): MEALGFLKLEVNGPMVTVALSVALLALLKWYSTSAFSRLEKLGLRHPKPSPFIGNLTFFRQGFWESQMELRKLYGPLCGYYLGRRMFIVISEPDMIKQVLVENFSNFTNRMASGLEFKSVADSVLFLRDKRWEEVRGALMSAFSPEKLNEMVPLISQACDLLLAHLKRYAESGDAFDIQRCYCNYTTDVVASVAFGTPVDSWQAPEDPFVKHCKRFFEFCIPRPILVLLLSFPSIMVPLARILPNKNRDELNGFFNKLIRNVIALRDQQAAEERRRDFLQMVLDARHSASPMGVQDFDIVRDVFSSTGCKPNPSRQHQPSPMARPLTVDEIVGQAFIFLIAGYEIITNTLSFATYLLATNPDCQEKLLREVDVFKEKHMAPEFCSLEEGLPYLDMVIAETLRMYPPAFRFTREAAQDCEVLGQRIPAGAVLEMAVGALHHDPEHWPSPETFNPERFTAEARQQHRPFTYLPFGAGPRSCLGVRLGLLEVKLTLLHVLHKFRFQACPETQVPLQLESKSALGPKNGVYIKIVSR
Assay: TXA2 inhibition test: TXA2 generated from PGH2 with human platelet microsomes, response of superfused rabbit aortic strips
Assay type: biochemical
Conditions: human platelet microsomes + PGH2, rabbit aorta bioassay
Experimental: The compounds of the present invention were tested for TXA2 inhibition as follows:
Rabbit aortic strips were superfused in series with Krebs solution. Thromboxane A2 (TXA2) was generated by mixing prostaglandin H2 (PGH2) with human platelet microsomes (HPM).
Potential inhibitors were tested by comparing the response of the rabbit aorta to the amount of TXA2 produced by mixing PGH2 and HPM without the test compound in the reaction medium and then the amount of TXA2 produced when the test compound was added to the HPM 5 minutes before the HPM was mixed with PGH2. […] For a discussion of TXA2 synthetase inhibition testing see, e.g., R. Gorman, supra.

`O=C(O)c1cc2cc(Cn3ccnc3)ccc2o1` [Example 3, 5-N-Imidazolylmethyl-benzofuran-2-carboxylic Acid, Sodium Salt] was tested. Which “effectiveness in inhibiting TXA2 formation (rank among tested compounds)” value did it give?
The value was “most effective”.
